Test results: US9872514B2, “Compounds, compositions, and methods for reducing or eliminating bitter taste” (Chromocell Corporation, priority 2010, dated 2018)
Read-outs that look alike come from different tables or passages of the source.

Legend:
Type in all cases: in vivo, humans
[1] = system: bitter taste of an aqueous solution of KCl; assay: Sip and spit bitterness rating of aqueous KCl test solutions; conditions: aqueous KCl 4.85 g/L, 1% EtOH, bitterness scored 0-15 vs KCl standard, dash = none of the tested conc.; for minimal effective concentration: Homo sapiens
Procedure: An amount of this stock compound solution is then added to an aqueous KCl solution. Enough EtOH is then added to the resulting stock compound/KCl solution so that the final KCl test solution contains 1% EtOH. KCl solution standards were similarly prepared by dissolving various amounts of KCl in water and ethanol without adding any test compound.
The effect of the test compounds an the perception of the bitter taste of an aqueous solution of KCl in humans was evaluated using a “sip and spit” test as follows.
(§1) A set of KCl solution standards was developed and each standard solution was assigned a bitterness taste score of 0-15 (corresponding to aqueous KCl concentrations of 0 mM-120 mM). Panelists were trained to recognize these standards. In addition, before each day of testing, panelists were tested to see if they could determine differences in taste between the standard solutions. If a panelist was unable to recognize a change in KCl concentration, they were excluded from the panel for that day.
(§2) In a blind taste test, panelists were asked to compare the bitter taste of a small quantity (e.g., 8 ml) of each of the KCl Test Solutions to the taste of a KCl solution standard, without swallowing (see, e.g., Table 1). Specifically, panelists were asked to rate the bitterness of each KCl Test Solution on a scale of 0-15 using the same scale developed for the KCl solution standards. Each sample was tested in 2-4 discrete taste test experiments. Panelists were asked to rinse with water, eat a cracker, and wait approximately 10 minutes between samples.

[2] = system: bitter taste of KCl foodstuff slurries; assay: Two-alternative forced choice (2AFC) sip and spit test of KCl turkey foodstuff slurries; conditions: Homo sapiens, turkey slurry, 1.6% KCl, 2AFC vs KCl slurry standard, dash = none of the tested conc.
Procedure: Edible KCl food compositions (“KCl test foodstuff slurries”) were prepared as follows. Dehydrated, salt-free turkey powder was weighed and mixed with various amounts of KCl and/or NaCl and then solubilized with boiling water to create a homogenized solubilized turkey slurry. Varying amounts of the test compounds were dissolved in an amount of ethanol or water (depending on the solubility of the compound) to create a 5 mg/mL stock compound solution. An amount of this stock compound solution was then added to the turkey slurry. Enough EtOH is then added to the resulting stock compound/turkey slurry so that the slurry contains 1% EtOH. The slurry was again homogenized by boiling and mixing and allowed to cool to yield the final KCl test foodstuff slurry for taste testing KCl foodstuff slurry standards were similarly prepared without any test compound.
The effect of the test compounds on the perception of the bitter taste of KCl foodstuff slurries in humans was evaluated using a two-alternative-forced-choice “sip and spit” test as follows.
In a blind taste test, panelists received two portions of turkey slurry—one portion being the KCl foodstuff slurry standard and the other being one of the KCl test foodstuff slurries (each prepared as described in Example 5). The panelists tasted each of the portions by sipping and spitting. Each sample was tested in 2-4 discrete taste test experiments. Panelists were asked to rinse with water, eat a cracker, and wait about 10 minutes between samples. In each case, the panelists were asked to compare the bitter taste of the two turkey samples to each other (i.e., panelists were asked to indicate which sample was less bitter).

[3] = system: bitter taste of an aqueous solution of potassium lactate; assay: Sip and spit bitterness rating of aqueous potassium lactate test solutions; conditions: Homo sapiens; aqueous potassium lactate 41 g/L, 1% EtOH; dash = none of the tested conc.; read-out: Conc. Where Decrease in Bitter Taste Was Discerned
Procedure: as §1, §2
Edible potassium lactate solution compositions (“potassium lactate test solutions”) were prepared by first dissolving varying amounts of the test compounds in an amount of ethanol or water (depending on the solubility of the compound) to create a 5 mg/mL stock compound solution. An amount of this stock compound solution is then added to an aqueous potassium lactate solution. Enough EtOH is then added to the resulting stock compound/potassium lactate solution so that the final potassium lactate test solution contains 1% EtOH. Potassium lactate solution standards were similarly prepared by dissolving various amounts of potassium lactate in water and ethanol without adding any test compound.
The effect of the test compounds on the perception of the bitter taste of an aqueous solution of potassium lactate in humans was evaluated using the “sip and spit” test described in Example 2.

[4] = system: bitter taste of an aqueous solution of KCl; assay: Latin Square-2AFC sip and spit test of aqueous KCl solutions; conditions: Homo sapiens; aqueous KCl 4.85 g/L, Latin Square-2AFC vs KCl standard; dash = none of the tested conc.; read-out: Conc. at Which At Least 50% of Panelist Discerned Decrease in Bitter Taste and p ≦ 0.1
Procedure: The effect of the test compounds on the perception of the bitter taste of an aqueous solution of KCl in humans was evaluated using a “sip and spit” test using a Latin Square-2AFC testing method as follows.
In a blind taste test, panelists were asked to compare the bitter taste of a small quantity (e.g., 8 ml) of a KCl Test Solution to the taste of a KCl solution standard (prepared as described in Example 1), without swallowing. NaCl solution standards were prepared as described in Example 1.
In order to eliminate any effects of sample order, a complete Latin Square design was employed so that each possible order of sample presentation was utilized across subjects. Each sample was tested in several discrete taste test experiments. Panelists were asked to rinse with water, eat a cracker, and wait about 10 minutes between samples. In each case, the panelists were asked to choose the sample which tasted “less bitter.” Illustrative results of the aqueous solution Latin Square-2AFC testing are presented in Table 5.

[5] = read-out: Conc. Where Decrease in Bitter Taste Discerned and p ≦ 0.1
[6] = read-out: Conc. Where Decrease in Bitter Taste Was Discerned
[7] = read-out: Conc. at Which At Least 50% of Panelist Discerned Decrease in Bitter Taste

## C/C=C/C(=O)C1=C(C)CCCC1(C)C [Compound 1]
[1]; [5]
  minimal effective concentration: 0.1 µg/mL
[1]; [6]
  minimal effective concentration: 0.1 µg/mL

## CC(=O)CCC1=C(C)CCCC1(C)C [Compound 4]
[1]; [5]
  minimal effective concentration: 1 µg/mL

## CC(=O)/C=C/C1C(C)=CCCC1(C)C (stereo not shown) [Compound 5]
[1]; [5]
  minimal effective concentration: 0.1 µg/mL
[1]; [6]
  minimal effective concentration: 0.1 µg/mL

## CC(=O)CCC1C(C)=CCCC1(C)C (stereo not shown) [Compound 6]
[1]; [5]
  minimal effective concentration: 1 µg/mL

## CC(C)=CCCC(C)CCO (stereo not shown) [Compound 7]
[1]; [6]
  minimal effective concentration: 10 µg/mL

## CC(C)=CCCC(C)CCOC=O (stereo not shown) [Compound 8]
[1]; [6]
  minimal effective concentration: 10 µg/mL
[2]; [7]
  minimal effective concentration: 1 µg/mL

## CC(=O)OCCC(C)CCC=C(C)C (stereo not shown) [Compound 9]
[1]; [6]
  minimal effective concentration: 10 µg/mL

## CCCCC(=O)OCCC(C)CCC=C(C)C (stereo not shown) [Compound 12]
[1]; [6]
  minimal effective concentration: 10 µg/mL

## CC(C)=CCCC(C)CC=O (stereo not shown) [Compound 13]
[1]; [6]
  minimal effective concentration: 1 µg/mL

## CC(CC=O)CCCC(C)(C)O (stereo not shown) [Compound 17]
[1]; [6]
  minimal effective concentration: 1 µg/mL

## COC(CC(C)CCCC(C)(C)O)OC (stereo not shown) [Compound 18]
[1]; [6]
  minimal effective concentration: 10 µg/mL

## CC(=O)OC/C=C(\C)CCC=C(C)C [Compound 21]
[1]; [6]
  minimal effective concentration: 10 µg/mL
[2]; [7]
  minimal effective concentration: 10 µg/mL

## CCCC(=O)OC/C=C(\C)CCC=C(C)C [Compound 23]
[1]; [5]
  minimal effective concentration: 1 µg/mL

## CC(C)=CCC/C(C)=C/COC(=O)CC(C)C [Compound 24]
[1]; [6]
  minimal effective concentration: 10 µg/mL

## CC(C)=CCC/C(C)=C\COC(=O)CC(C)C [Compound 25]
[1]; [5]
  minimal effective concentration: 1 µg/mL

## CC(=O)CC/C=C(\C)CCC=C(C)C [Compound 29]
[1]; [6]
  minimal effective concentration: 1 µg/mL

## CCCC(=O)OC/C=C(/C)CCC=C(C)C [Compound 33]
[1]; [6]
  minimal effective concentration: 1 µg/mL

## CC(=O)Oc1c(C)c(C)c2c(c1C)CC[C@@](C)(CCCC(C)CCCC(C)CCCC(C)C)O2 (stereo partly shown) [Compound 45]
[1]; [6]
  minimal effective concentration: 1 µg/mL

## Cc1cc(O)cc2c1O[C@](C)(CCC[C@H](C)CCC[C@H](C)CCCC(C)C)CC2 [Compound 49]
[1]; [6]
  minimal effective concentration: 10 µg/mL

## CC(=O)Oc1c(C)c(C)c2c(c1C)CCC(C)(CCCC(C)CCCC(C)CCCC(C)C)O2 (stereo not shown) [Compound 50]
[1]; [6]
  minimal effective concentration: 1 µg/mL

## O=C(O)c1ccccc1 [Compound 54]
[1]
  Conc. Where Decrease in Bitter Taste Was Discerned: 10 ppm

## CCCOC(=O)c1ccccc1 [Compound 56]
[1]; [6]
  minimal effective concentration: 1 µg/mL

## O=C(O)c1ccc(O)cc1 [Compound 58]
[1]; [5]
  minimal effective concentration: 10 µg/mL
[1]; [6]
  minimal effective concentration: 10 µg/mL

## O=C(O)c1ccc(O)cc1O [Compound 59]
[1]; [6]
  minimal effective concentration: 1 µg/mL

## COC(=O)c1ccc(O)cc1 [Compound 61]
[1]; [6]
  minimal effective concentration: 1 µg/mL

## CCOC(=O)c1ccc(O)cc1 [Compound 62]
[1]; [6]
  minimal effective concentration: 10 µg/mL

## CCCCOC(=O)c1ccc(O)cc1 [Compound 63]
[1]; [5]
  minimal effective concentration: 1 µg/mL
[2]; read-out: Conc. at Which At Least 50% of Panelist Discerned Decrease in Bitter Taste and p ≦ 0.1
  minimal effective concentration: 30 µg/mL

## COC(=O)c1ccccc1OC [Compound 68]
[1]; [6]
  minimal effective concentration: 10 µg/mL

## CC(O)c1ccccc1 (stereo not shown) [Compound 71]
[1]; [5]
  minimal effective concentration: 1 µg/mL

## CC(C)CC(=O)O[C@@H]1C[C@@H]2CC[C@@]1(C)C2(C)C [Compound 78]
[1]; [6]
  minimal effective concentration: 1 µg/mL

## CC(=O)OC1C2(C)CCC(C2)C1(C)C (stereo not shown) [Compound 81]
[1]; [6]
  minimal effective concentration: 10 µg/mL

## CC(=O)O[C@@H]1C[C@@H]2CC[C@@]1(C)C2(C)C [Compound 88]
[1]; [5]
  minimal effective concentration: 1 µg/mL
[2]; [7]
  minimal effective concentration: 1 µg/mL

## C[C@@H]1[C@@H](O)C[C@H]2C[C@@H]1C2(C)C [Compound 90]
[1]; [6]
  minimal effective concentration: 1 µg/mL

## CC1(C)[C@H]2CC[C@H](CO)[C@@H]1C2 [Compound 92]
[1]; [5]
  minimal effective concentration: 1 µg/mL
[1]; [6]
  minimal effective concentration: 1 µg/mL

## CC(=O)OCC1=CC[C@@H]2C[C@H]1C2(C)C [Compound 94]
[1]; [6]
  minimal effective concentration: 10 µg/mL

## O=C1C[C@@H](c2ccccc2)Oc2cc(O)cc(O)c21 [Compound 97]
[1]; [6]
  minimal effective concentration: 1 µg/mL

## COc1ccc(-c2cc(=O)c3c(OC)c(OC)c(OC)cc3o2)cc1 [Compound 99]
[1]; [6]
  minimal effective concentration: 1 µg/mL

## COc1cc(OC)c2c(=O)cc(-c3ccccc3)oc2c1 [Compound 100]
[1]; [6]
  minimal effective concentration: 10 µg/mL

## O=c1cc(-c2ccccc2)oc2cc(O)ccc12 [Compound 101]
[1]; [6]
  minimal effective concentration: 1 µg/mL

## COc1cc(-c2oc3cc(O)cc(O)c3c(=O)c2O)ccc1O [Compound 102]
[1]; [5]
  minimal effective concentration: 1 µg/mL
[1]; [6]
  minimal effective concentration: 1 µg/mL
[3]
  minimal effective concentration: 1 µg/mL
[2]; [7]
  minimal effective concentration: 10 µg/mL

## Oc1cc(O)c2c(c1)O[C@H](c1ccc(O)c(O)c1)[C@@H](O)C2 [Compound 104]
[1]; [6]
  minimal effective concentration: 10 µg/mL

## Oc1cc(O)c2c(c1)O[C@@H](c1cc(O)c(O)c(O)c1)[C@H](O)C2 [Compound 106]
[1]; [6]
  minimal effective concentration: 1 µg/mL

## O=C(O[C@@H]1Cc2c(O)cc(O)cc2O[C@@H]1c1ccc(O)c(O)c1)c1cc(O)c(O)c(O)c1 [Compound 107]
[1]; [6]
  minimal effective concentration: 10 µg/mL

## O=C(O[C@@H]1Cc2c(O)cc(O)cc2O[C@@H]1c1cc(O)c(O)c(O)c1)c1cc(O)c(O)c(O)c1 [Compound 108]
[1]; [6]
  minimal effective concentration: 1 µg/mL

## O=c1c(O)c(-c2ccc(O)c(O)c2)oc2cc(O)cc(O)c12 [Compound 111]
[1]; [5]
  minimal effective concentration: 10 µg/mL
[2]; [7]
  minimal effective concentration: 1 µg/mL

## O=C(/C=C/C=C/c1ccc2c(c1)OCO2)N1CCCCC1 [Compound 113]
[1]; [6]
  minimal effective concentration: 1 µg/mL

## O=Cc1ccc2c(c1)OCO2 [Compound 114]
[4]
  minimal effective concentration: 25 µg/mL

## CC(C)C(=O)OCc1ccc2c(c1)OCO2 [Compound 117]
[1]; [6]
  minimal effective concentration: 10 µg/mL

## C/C=C/c1ccc2c(c1)OCO2 [Compound 118]
[3]
  minimal effective concentration: 1 µg/mL

## C=C1CC[C@H]2O[C@]2(C)CC[C@@H]2[C@@H]1CC2(C)C [Compound 121]
[1]; [5]
  minimal effective concentration: 40 µg/mL
[1]; [6]
  minimal effective concentration: 40 µg/mL

## COc1ccc2c(c1)[nH]c1c(C)nccc12 [Compound 130]
[1]; [6]
  minimal effective concentration: 40 µg/mL

## COc1c(C(=O)CC(=O)c2ccccc2)ccc2occc12 [Compound 132]
[1]; [6]
  minimal effective concentration: 1 µg/mL

## O=C1CC(C(=O)O)C(C(=O)O)O1 (stereo not shown) [Compound 133]
[1]; [5]
  minimal effective concentration: 2 µg/mL
[1]; [6]
  minimal effective concentration: 2 µg/mL
